This note sets out measurements from PubChem BioAssay AID328 (DTP/NCI, 2004).

The experiment has as its system BDF1 mice, P388 leukemia ip, median survival T/C. The experiment is described as follows: NCI In Vivo Anticancer Drug Screen. Data for tumor model P388 Leukemia (intraperitoneal) in B6D2F1 (BDF1) mice. The note with it: endpoint: median survival time, higher = longer survival. Put shortly: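 Transplantable tumour in mice; compound vs vehicle dosing; survival scored; ratio of treated to control reported.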

[1] abbreviates: dose: 100.0 mg/kg/injection, schedule: Q01DX009 (ip), vehicle: Klucel (hydroxypropylcellulose) (HPC).
Where [2] appears, read: dose: 200.0 mg/kg/injection, schedule: Q01DX009 (ip), vehicle: Klucel (hydroxypropylcellulose) (HPC).
[3] abbreviates: dose: 6.25 mg/kg/injection, schedule: Q01DX009 (ip), vehicle: saline with Tween-80.
Setting [4] is: dose: 12.5 mg/kg/injection, schedule: Q01DX009 (ip), vehicle: saline with Tween-80.
Where [5] appears, read: dose: 50.0 mg/kg/injection, schedule: Q01DX009 (ip), vehicle: saline with Tween-80.
Where [6] appears, read: dose: 100.0 mg/kg/injection, schedule: Q01DX009 (ip), vehicle: saline with Tween-80.
The mark [7] stands for this setting: dose: 200.0 mg/kg/injection, schedule: Q01DX009 (ip), vehicle: saline with Tween-80.
The mark [8] stands for this setting: dose: 100.0 mg/kg/injection, schedule: Q04DX003 (ip), vehicle: saline with Tween-80.
Setting [9] is: dose: 50.0 mg/kg/injection, schedule: Q04DX003 (ip), vehicle: saline with Tween-80.
Setting [10] is: dose: 12.5 mg/kg/injection, schedule: Q01DX009 (ip), vehicle: saline.
Where [11] appears, read: dose: 25.0 mg/kg/injection, schedule: Q01DX009 (ip), vehicle: saline.
[12] abbreviates: dose: 25.0 mg/kg/injection, schedule: Q01DX009 (ip), vehicle: saline with Tween-80.
Where [13] appears, read: dose: 100.0 mg/kg/injection, schedule: Q04DX003 (ip), vehicle: Klucel (hydroxypropylcellulose) (HPC).
Setting [14] is: dose: 200.0 mg/kg/injection, schedule: Q04DX003 (ip), vehicle: Klucel (hydroxypropylcellulose) (HPC).
Setting [15] is: dose: 400.0 mg/kg/injection, schedule: Q04DX003 (ip), vehicle: Klucel (hydroxypropylcellulose) (HPC).
[16] abbreviates: dose: 6.25 mg/kg/injection, schedule: Q01DX009 (ip), vehicle: saline.

SMILES strings stand for the structures. Where “and” joins values, the source holds several entries; their conditions need not be identical. Identical values can stand only once. Toxic doses and inconclusive results are not listed.

Consider `CC12C(=O)C(C)(C(c3ccccc3)=C1c1ccccc1)C1(c3ccccc3)C(c3ccccc3)C21c1ccccc1` (stereo not drawn), for which the T/C reads like this: (dose: 50.0 mg/kg/injection, schedule: Q01DX009 (ip), vehicle: Klucel (hydroxypropylcellulose) (HPC)) 100 % of control; under setting [1], 100 % of control; under setting [2], 104 % of control.
Regarding `NC(N)=N/N=C(/c1ccccc1)c1ccc(F)cc1`, the T/C reads like this: (dose: 1.2 mg/kg/injection, schedule: Q01DX009 (ip), vehicle: Klucel (hydroxypropylcellulose) (HPC)) 115 % of control; (dose: 5.0 mg/kg/injection, schedule: Q01DX009 (ip), vehicle: Klucel (hydroxypropylcellulose) (HPC)) 104 % of control and 105 % of control; (dose: 5.0 mg/kg/injection, schedule: Q01DX009 (ip), vehicle: saline) 95 % of control; (dose: 10.0 mg/kg/injection, schedule: Q01DX009 (ip), vehicle: Klucel (hydroxypropylcellulose) (HPC)) 100 % of control and 109 % of control; (dose: 10.0 mg/kg/injection, schedule: Q01DX009 (ip), vehicle: saline) 100 % of control; (dose: 20.0 mg/kg/injection, schedule: Q01DX009 (ip), vehicle: saline) 112 % of control.
As for `CC([CH2][Hg][Cl])c1ccccc1` (stereo not drawn), the T/C is, setting by setting: (dose: 3.13 mg/kg/injection, schedule: Q01DX009 (ip), vehicle: saline with Tween-80) 122 % of control; (dose: 4.16 mg/kg/injection, schedule: Q01DX009 (ip), vehicle: saline with Tween-80) 118 % of control; under setting [3], 113 % of control; (dose: 9.38 mg/kg/injection, schedule: Q01DX009 (ip), vehicle: saline with Tween-80) 109 % of control; under setting [4], 109 % of control.
Turning to `Cc1cc(C)c(NC(=O)N(CCCl)N=O)cc1C`, the T/C by setting is: (dose: 20.0 mg/kg/injection, schedule: Q01DX009 (ip), vehicle: other) 110 % of control; (dose: 45.0 mg/kg/injection, schedule: Q01DX009 (ip), vehicle: other) 100 % of control; (dose: 50.0 mg/kg/injection, schedule: Q01DX009 (ip), vehicle: other) 122 % of control; under setting [5], 105 % of control; (dose: 50.0 mg/kg/injection, schedule: Q04DX003 (ip), vehicle: saline) 108 % of control; (dose: 65.0 mg/kg/injection, schedule: Q01DX009 (ip), vehicle: other) 150 % of control. Further, the T/C is, setting by setting: under setting [6], 105 % of control; (dose: 100.0 mg/kg/injection, schedule: Q04DX003 (ip), vehicle: saline) 108 % of control; (dose: 200.0 mg/kg/injection, schedule: Q01DX009 (ip), vehicle: other) 122 % of control; under setting [7], 105 % of control; (dose: 200.0 mg/kg/injection, schedule: Q04DX003 (ip), vehicle: saline) 95 % of control.
In the case of `S=C(/N=C1\CCC\C1=C/c1ccccc1)/N=C1\CCC\C1=C/c1ccccc1`, the T/C runs as follows: under setting [8], 100 % of control; (dose: 200.0 mg/kg/injection, schedule: Q04DX003 (ip), vehicle: saline with Tween-80) 109 % of control; (dose: 400.0 mg/kg/injection, schedule: Q04DX003 (ip), vehicle: saline with Tween-80) 115 % of control.
With `CCCCN(CCC#N)CCCC`, the T/C was 100 % of control (dose: 25.0 mg/kg/injection, schedule: Q04DX003 (ip), vehicle: saline with Tween-80); 100 % of control under setting [9]; 100 % of control under setting [8].
Turning to `C[CH2][Sn]([CH2]C)([O]S(=O)(=O)CC12CCC(CC1=O)C2(C)C)[O]S(=O)(=O)CC12CCC(CC1=O)C2(C)C`, the T/C under setting [10] is 173 % of control and the T/C under setting [11] is 195 % of control.
In the case of `CN1CCCC1CCNc1nc(C(Cl)(Cl)Cl)nc2ccc(Cl)cc12` (stereo not drawn), the T/C reads like this: under setting [12], 100 % of control; under setting [5], 100 % of control; under setting [9], 104 % of control; under setting [8], 104 % of control.
As to `CCC[CH2][Sn]([I])([CH2]I)[CH2]CCC`, the T/C is, setting by setting: (dose: 1.56 mg/kg/injection, schedule: Q01DX009 (ip), vehicle: saline with Tween-80) 102 % of control; (dose: 3.12 mg/kg/injection, schedule: Q01DX009 (ip), vehicle: saline with Tween-80) 106 % of control; under setting [3], 123 % of control.
On to `CCC(=O)Nc1ccc(C)cc1C`, for which the T/C was 104 % of control under setting [1]; 104 % of control under setting [13]; 100 % of control under setting [2]; 90 % of control under setting [14]; 95 % of control (dose: 400.0 mg/kg/injection, schedule: Q01DX009 (ip), vehicle: Klucel (hydroxypropylcellulose) (HPC)); 90 % of control under setting [15].
On to `NCCCC(NC(=O)CCCCCCCCN=C(N)N)C(O)CCCCCCCCN=C(N)N` (stereo not drawn), for which the T/C (dose: 3.75 mg/kg/injection, schedule: Q01DX010 (ip), vehicle: saline) is 91 % of control.
As to `COc1cc([N+](=O)[O-])ccc1NC(=O)NCc1ccccc1`, the T/C runs as follows: under setting [5], 95 % of control; under setting [6], 98 % of control; under setting [7], 98 % of control; (dose: 400.0 mg/kg/injection, schedule: Q01DX009 (ip), vehicle: saline with Tween-80) 104 % of control.
With `O=C1c2cccnc2C(=O)c2c(O)ccc(O)c21`, the T/C reads like this: under setting [12], 97 % of control; under setting [5], 99 % of control; under setting [6], 92 % of control; under setting [7], 115 % of control.
In the case of `CC(=O)OC1CCC2(C)C(CCC3(C)C2CC=C2C4C(C)C(C)CCC4(C)CCC23C)C1(C)C` (stereo not drawn), the T/C is 100 % of control under setting [13], 100 % of control under setting [14] and 90 % of control under setting [15].
Turning to `CC(C)c1ccccc1OS(=O)(=O)c1ccc([N+](=O)[O-])cc1`, the T/C by setting is: (dose: 100.0 mg/kg/injection, schedule: Q04DX003 (ip), vehicle: saline sonified) 90 % of control; (dose: 200.0 mg/kg/injection, schedule: Q04DX003 (ip), vehicle: saline sonified) 95 % of control; (dose: 400.0 mg/kg/injection, schedule: Q04DX003 (ip), vehicle: saline sonified) 95 % of control.
With `NC(=S)NNC(=O)C(Cc1ccccc1)NC(=O)OCc1ccccc1` (stereo not drawn), the T/C under setting [4] was 100 % of control and the T/C under setting [12] was 94 % of control.
For `CC(C)(C)C(CO)CO`, the T/C runs as follows: under setting [5], 93 % of control; under setting [6], 100 % of control; under setting [7], 100 % of control.
Regarding `NC1CC[N-]CC1.NC1CC[N-]CC1.[Cl][Pt+2]([Cl])([Cl])[Cl]`, the T/C is 109 % of control (dose: 3.12 mg/kg/injection, schedule: Q01DX009 (ip), vehicle: saline); 100 % of control and 118 % of control under setting [16]; 108 % of control under setting [10]; 120 % of control under setting [11]; 111 % of control (dose: 50.0 mg/kg/injection, schedule: Q01DX009 (ip), vehicle: saline).
As to `O=C(Nc1nncs1)c1ccncc1`, the T/C by setting is: (dose: 50.0 mg/kg/injection, schedule: Q04DX002 (ip), vehicle: saline with Tween-80) 90 % of control; (dose: 200.0 mg/kg/injection, schedule: Q04DX002 (ip), vehicle: saline with Tween-80) 152 % of control; (dose: 400.0 mg/kg/injection, schedule: Q04DX002 (ip), vehicle: saline with Tween-80) 100 % of control.
`CCCCCCCCCCCCNC(=O)c1ccc[n+](C)c1`: the T/C by setting is: under setting [16], 118 % of control; under setting [10], 109 % of control; under setting [11], 113 % of control.
With `CCCCCCCCCOc1ccc(C=O)cc1OC`, the T/C is, setting by setting: (dose: 100.0 mg/kg/injection, schedule: Q01DX001 (ip), vehicle: saline sonified) 100 % of control; (dose: 200.0 mg/kg/injection, schedule: Q01DX001 (ip), vehicle: saline sonified) 90 % of control; (dose: 400.0 mg/kg/injection, schedule: Q01DX001 (ip), vehicle: saline sonified) 100 % of control.
Regarding `CN(C)CCCn1c(=O)c2ccccc2c2ccccc21`, the T/C was 90 % of control (dose: 12.5 mg/kg/injection, schedule: Q01DX010 (ip), vehicle: saline); 90 % of control (dose: 25.0 mg/kg/injection, schedule: Q01DX010 (ip), vehicle: saline); 90 % of control (dose: 50.0 mg/kg/injection, schedule: Q01DX010 (ip), vehicle: saline).
